Results: patent US20180078529A1, “ANGIOTENSIN II RECEPTOR AGONIST FOR TREATING PULMONARY FIBROSIS” (VICORE PHARMA AB, priority 2015, published 2018)

Test system: Patients have a diagnosis of Idiopathic Pulmonary Fibrosis, IPF
Test: Treatment of patients with Idiopathic Pulmonary Fibrosis with C21 (Examples 1 and 2)
Assay type: in vivo, human
Conditions: a few weeks after starting treatment
Description: Patients have a diagnosis of Idiopathic Pulmonary Fibrosis, IPF, who generally are above the age of 60 years, often with concomitant diseases, like ischemic heart disease, diabetes etc. Patients may either be treated for IPF with currently established drugs, e.g. pirfenidone and/or nintedanib or treatment-naïve. Each patient receives a compound of the invention, C21, in a dose range between 0.3 mg and 100 mg daily that is administered once or several times daily. Control groups are administered placebo, or one or more currently established therapies, e.g. pirfenidone and/or nintedanib. The compound, C21, is in a formulation hat can be administered to the patient orally, via inhalation, intravenously or as a combination of more than one route of administration for the treatment of IPF. The treatment is evaluated through efficacy variables such as objective measurements of improved lung capacity/cardiac function and subjective symptoms and quality of life—both at visits to doctors' office and in the patient's home or work environment. Beneficial effects are recorded and followed after one to several months' treatment with the compound, C21, vs placebo or vs currently established therapy(-ies), e.g. pirfenidone and/or nintedanib.
Patients have a diagnosis of Idiopathic Pulmonary Fibrosis, IPF, and are treated according to EXAMPLE 1. […] Furthermore, cardiac function tests, e.g. echo or MRI, may indicate improvements in the underlying lung disease resulting in improved cardiac performance. Benefits may also be seen as an improvement in progression-free survival, where the number of deaths is analyzed together with the number of patients presenting with pre-defined marked reduction of FVC and/or exercise capacity. Benefits can be either self-reported or objectively recorded. Improvements in symptoms may include less dyspnea, less cough, less fatigue, increased exercise capacity and improved quality of life. Improvements may be seen in treatment-naïve patients as well as in those already on treatment with established therapies for IPF.

SMILES: CCCCOC(=O)NS(=O)(=O)c1sc(CC(C)C)cc1-c1ccc(Cn2ccnc2)cc1 [Compound C21, N-Butyloxycarbonyl-3-(4-imidazol-1-ylmethylphenyl)-5-iso-butylthiophene-2-sulfonamide]
- dyspnea and cough (patient-reported): slight improvement
- exercise capacity (patient with IPF): without any deterioration
- biomarkers that are relevant for the progression of the disease (blood tests) (patient with IPF, C21 0.3 mg to 100 mg daily): improvement in biomarkers
